Measured values published in a melting point compilation (Tetko et al.; mined from patent text by program, amines drawn as free bases though some values may be those of a salt).

First: Cc1noc(NS(=O)(=O)c2ccccc2-c2ccc(-c3ncco3)cc2CN(CC(F)(F)F)C(=O)C(C)(C)C)c1C
Second: Cc1noc(NS(=O)(=O)c2ccccc2-c2ccc(-c3ncco3)cc2CN2CC(C)(C)CC2=O)c1C
The melting point of the first is higher: 146 to 147 °C for the first, 118 to 125 °C for the second.

Compared with COC(=O)C(NS(=O)(=O)c1ccc(-c2ccc(NC(=O)c3cc4ccccc4o3)cc2)cc1)C(C)C (stereo unspecified), CCc1ccc2oc(C(=O)Nc3ccc(-c4ccc(S(=O)(=O)NC(C(=O)OC)C(C)C)cc4)cc3)c(C)c2c1O (stereo unspecified) is lower in melting point: 195 to 200 °C for the first, 75 to 80 °C for the second.

First: CC1CC2C3CCC4=CC(=O)C=CC4(C)C3C(=O)CC2(C)C1C(=O)COC(=O)C(C)(C)C (stereo unspecified)
Second: CC1(C)C2CC[C@]1(C)C(=O)C(C(=O)Nc1cc(Cl)cc(Cl)c1)C2=O (stereo partly specified)
The melting point of the first is higher: 201 to 202 °C for the first, 112 to 114 °C for the second.

Compared with O=C1Cc2c(Cl)cccc2Sc2ccccc21, C=CCN(NC(=O)c1ccc(Cl)c(S(N)(=O)=O)c1)c1ccccc1 is lower in melting point: 122 to 125 °C for the first, 99 to 101 °C for the second.

Compared with COc1ccnc(Cl)c1NS(=O)(=O)c1nc2cc(F)nc(OC)n2n1, COc1cc(OC)nc(Sc2ncccc2C(=O)O)n1 is lower in melting point: 187 to 188 °C for the first, 165 to 168 °C for the second.

First: CCSC(C#N)C1=NCCc2cc(OC)c(OC)cc21 (stereo unspecified)
Second: CCOC(=O)Nc1ccc(OC)c(OC)c1C=O
The melting point of the first is higher: 113 to 115 °C for the first, 86 to 88 °C for the second.

First: N#CC1c2cc(Cl)c(Cl)cc2C=CN1C(=O)c1ccccc1 (stereo unspecified)
Second: N#CSCC(=O)c1ccccc1
The melting point of the first is higher: 194 to 196 °C for the first, 75 to 77 °C for the second.

First: CC(=O)Oc1ccccc1C1CCC(=O)CC1
Second: CCOC(=O)C1CCC(c2ccccc2)n2c(=O)n(CCCl)c(=O)n21 (stereo unspecified)
The melting point of the first is lower: 86 to 87 °C for the first, 87 to 89 °C for the second.

First: O=C(c1ccc(Cl)cc1)c1cc[nH]c1
Second: COc1ccc(-n2nc(CO)cc2-c2ccc(Cl)cc2)cc1
The melting point of the first is higher: 118 to 120 °C for the first, 95 to 97 °C for the second.

First: CC(C)(C)C(Cl)=NNc1cc(Cl)c(Cl)cc1[N+](=O)[O-]
Second: COC(=O)C(=CC(=CN(C)C)c1ccc(Cl)cc1[N+](=O)[O-])[N+](=O)[O-]
The melting point of the first is lower: 99 to 100 °C for the first, 193 to 197 °C for the second.

Compared with CCCCCN(CCC12CC3CC(CC(C3)C1)C2)C(=O)NCC(C)Cc1ccncc1 (stereo unspecified), Cn1ccc2cc(NC(=O)CC34CC5CC(CC(C5)C3)C4)ccc21 is higher in melting point: 103 to 104 °C for the first, 183 to 184 °C for the second.

First: CC(O)C=CS(C)(=O)=O (stereo unspecified)
Second: CS(=O)(=O)C=Cc1ccccc1
The melting point of the first is lower: 70 to 72 °C for the first, 77 to 79 °C for the second.

First: CCOC(=O)c1cnc2c3cc(NC(=O)C(CC)CC)ccc3ncn2c1=O
Second: CCOC(=O)c1cn(CCc2ccc(O)cc2)c2cc(C3CC3)nn2c1=O
The melting point of the first is higher: 220 to 222 °C for the first, 95 to 100 °C for the second.

First: O=C(Nc1cccc(Br)c1)Oc1ccc2ncccc2c1
Second: COc1ccc2cc(-c3cc(=O)oc4cc(O)ccc34)ccc2c1
The melting point of the first is higher: 260 °C for the first, 223 to 225 °C for the second.

First: NC(=O)Nc1cccc(CO)c1
Second: CC(=O)Nc1cccc(C)n1
The melting point of the first is higher: 188 to 202 °C for the first, 87 °C for the second.

Compared with O=C(O)/C=C/c1ccc(C(=O)NCC2CCCO2)cc1 (stereo unspecified), O=C(C=Cc1c(Cl)ccc(Cl)c1Cl)c1ccc(OC2CCCCO2)cc1 (stereo unspecified) is lower in melting point: 215 °C for the first, 101 to 104 °C for the second.

COc1ccc(-c2cc3ccc(C)cc3s2)cc1 and COc1ccc(-c2ccncc2)cc1-c1ccc(Oc2ccccc2)cc1 cannot be ordered by melting point: 198 to 200 °C for the first, 173 to 218 °C for the second.

Compared with CS(=O)(=O)c1ccc(-n2cc(-c3ccc(Br)cc3)nc2-c2ccc(Cl)cc2)cc1, O=C(O)C(CCN1C(=O)c2ccccc2C1=O)CS(=O)(=O)c1ccc(-c2ccccc2)cc1 (stereo unspecified) is higher in melting point: 145 to 148 °C for the first, 180 °C for the second.

Compared with O=C1c2c(O)ccc(O)c2C(=O)c2c(NCCNCCO)ccc(NCCNCCO)c21, CCCc1c(OCCCCc2cccc(O)c2O)ccc(C(C)=O)c1O is lower in melting point: 175 to 177 °C for the first, 103 to 105 °C for the second.

Compared with O=S(=O)(Nc1ccc2c(OCC3(c4cccc(C(F)(F)F)c4)N=CNO3)cccc2c1)C(F)(F)F (stereo unspecified), CC(OCc1cc2cc(C(F)(F)F)ccc2n1S(=O)(=O)c1ccc2c(c1)OCCN2C)C(=O)O (stereo unspecified) is higher in melting point: 107 to 108 °C for the first, 118 to 120 °C for the second.

First: COC(=O)c1ccc(C(=O)O)cc1C
Second: CCNC(=O)Nc1scc(-c2ccccc2)c1C(=O)OCC
The melting point of the first is higher: 134 to 136 °C for the first, 109 to 112 °C for the second.

Compared with CS(=O)(=O)c1ccc(Oc2ccc(Oc3ccccc3)cc2)nc1, CC(=O)Nc1nc(-c2ccccc2)c(-c2ccnc(Nc3ccccc3)n2)s1 is higher in melting point: 136 to 138 °C for the first, over 260 °C for the second.

First: Cc1c(C2=CCC(c3ccccc3)(N(C)C)CC2)[nH]c2ccccc12 (stereo unspecified)
Second: CCOC(=O)C1=C(C)NC(C)=C(C(=O)OCC)C1c1ccccc1/C=C(\C)c1ccccc1
The melting point of the first is higher: 168 to 180 °C for the first, 141 to 142 °C for the second.

First: C=C=C(C)C1Oc2cccc(OC)c2-c2ccc3c(c21)C(C)=CC(C)(C)N3 (stereo unspecified)
Second: COc1ccc(F)cc1C(C)(C)CC(O)(CN1CC(=O)Nc2ccccc21)C(F)(F)F (stereo unspecified)
The melting point of the first is lower: 59 to 63 °C for the first, 69 to 71 °C for the second.

First: CCOC(=O)c1sccc1S(N)(=O)=O
Second: CCOC(=O)c1cnc2snc(C)c2c1N(Cc1cccnc1)S(=O)(=O)c1ccc(OC)cc1
The melting point of the first is lower: 136 °C for the first, 142 to 144 °C for the second.

First: C#CCOCc1cc(-c2ccc(C(F)(F)F)n(C)c2=O)c(F)cc1Cl
Second: O=C1N(Cc2ccccc2C(F)(F)F)c2ccccc2C12COc1cc3c(cc12)OCCO3 (stereo unspecified)
The melting point of the first is lower: 99 to 101 °C for the first, 137 to 138 °C for the second.

First: CC(C)(CF)c1cc(Cl)nnc1Cl
Second: Cc1cc2c(s1)S(=O)(=O)N(C(C)(C)C)C2=O
The melting point of the first is lower: 36 to 38 °C for the first, 80 to 81 °C for the second.

Compared with CCOC(CBr)(OCC)C(=NOC)C(=O)Cl, COC(=O)CCC(=NO)C(C)(C)NCCCNC(C)(C)C(Cn1ccnc1[N+](=O)[O-])=NO is higher in melting point: 33 to 35 °C for the first, 137 to 139 °C for the second.

First: CCCC(Br)c1nc2ccccc2n1Cc1ccc(C#N)cc1 (stereo unspecified)
Second: N#Cc1ccc2cc(CCCc3cc4ccc(C#N)cc4o3)oc2c1
The melting point of the first is lower: 135 °C for the first, 199 to 201 °C for the second.

First: CC(C)n1nc(-c2cc(NC(=O)OC(C)(C)C)cnc2-c2ccccc2)ccc1=O
Second: COc1ccn2nc(-c3ccccc3F)c(-c3ccc(=O)n(C(C)C)n3)c2c1
The melting point of the first is higher: 221 to 223 °C for the first, 174 to 175 °C for the second.

Compared with CCCN(CCC)Cc1coc(-c2ncn3c2CN(C)C(=O)c2sccc2-3)n1, CCCCCCCN(CCCCCSc1nc(-c2ccccc2)c(-c2ccccc2)[nH]1)C(=O)NCCC is lower in melting point: 110 to 111 °C for the first, 78 to 80 °C for the second.

First: Cc1ccc(S(=O)(=O)n2c(CCC(=O)O)cc3cc(Cl)ccc32)cc1
Second: COC(=O)C(C)c1ccc2nc3ccc(Cl)cn3c(=O)c2c1 (stereo unspecified)
The melting point of the first is lower: 165 to 168 °C for the first, 173 °C for the second.

Compared with COc1cc(NC(=O)C2C(=O)N(C)C(=O)N(C)C2=O)ccc1Oc1nnc(C(C)(C)C)s1, CN(OCc1nc2c(N)nc3ccccc3c2n1CC(C)(C)O)C(N)=O is higher in melting point: 178 to 179 °C for the first, 206 to 207 °C for the second.

Compared with CCOC(=O)C1Cc2ccc(OC)c(Cl)c2O1 (stereo unspecified), CCOC(=O)C1(C(=O)OCC)NC(=O)CC1c1ccccc1 (stereo unspecified) is lower in melting point: 108 to 110 °C for the first, 97 to 99 °C for the second.

First: C[C@@H]1Cc2ccsc2[C@H](C)N1CCNC(=O)c1ccccc1N (relative stereo)
Second: NC(=O)c1cn(-c2ccccn2)nc1-c1ccc([N+](=O)[O-])o1
The melting point of the first is lower: 89 to 94 °C for the first, 250 °C for the second.

First: COC1CCCCC1n1nnc2c([N+](=O)[O-])cccc21 (stereo unspecified)
Second: c1csc(-c2ccc(-c3cn([C@H]4CN5CCC4CC5)nn3)cc2)c1
The melting point of the first is lower: 134 to 136 °C for the first, 214 °C for the second.

First: CSC(Nc1cccnc1)=C(C#N)C#N
Second: Cn1ccnc1NC(=S)Nc1ccccc1
The melting point of the first is higher: 180 to 181 °C for the first, 170 to 172 °C for the second.

First: Cc1cc(-c2cc(O)c(SCCc3ccccc3)c(=O)o2)ccc1OCc1ccccc1
Second: O=C([C@H]1CN(Cc2ccccc2)CCN1C(=O)NC1CCCCC1)N(CCCn1ccnc1)Cc1ccccc1
The melting point of the first is higher: 147 to 148 °C for the first, 89.1 °C for the second.

First: COc1c(Br)cc(C2CC=CCC2[N+](=O)[O-])c(OC)c1OC (stereo unspecified)
Second: COc1c(N2CCCC(NC(C)=O)C2)c(F)cc2c(=O)c(C(=O)O)cn(C3CC3)c12 (stereo unspecified)
The melting point of the first is lower: 134 to 136 °C for the first, 176 to 177 °C for the second.

First: COc1ccc(C#N)c2c1OC1(CCCC1)C2
Second: CCOC(=O)c1cc(C#N)c(C)nc1N1CCCCC1
The melting point of the first is higher: 74 to 76 °C for the first, 72 to 74 °C for the second.

First: O=C(C1CN(S(=O)(=O)c2ccc3cc(Br)ccc3c2)CCN1C(=O)C1CCN(c2ccncc2)CC1)N1CCSCC1 (stereo unspecified)
Second: O=C(Nc1ccc(Cl)cn1)c1cc(Cl)ccc1NCC1CCN(C2CCCC2)CC1
The melting point of the first is higher: 250 to 258 °C for the first, 170 to 171 °C for the second.

Compared with O=C(O)/C=C/C=C/C=C/C1=Cc2cc(C(F)(F)F)ccc2OC1, CCCCCS(=O)(=O)NC(=O)/C=C/c1ccc(Oc2ncccn2)cc1Oc1ncc(C(F)(F)F)cc1Cl is lower in melting point: 208 to 210 °C for the first, 80.5 to 82.5 °C for the second.

First: FC(F)(F)c1ccc(C2=NN(C(=S)Nc3ccc(Cl)cc3)CC2c2ccccc2)cc1 (stereo unspecified)
Second: COC(=O)CC(O)/C=C/c1c(-c2ccc(F)cc2)n(C(C)C)c(=O)c2ccccc12 (stereo unspecified)
The melting point of the first is higher: 208 to 210 °C for the first, 167 to 168 °C for the second.

Compared with CC(=O)Nc1c(C(=O)c2cc(F)cc(F)c2)[nH]c2cc(Cl)ccc12, CCCCC(=O)N(Cc1ccc(OC(F)(F)F)cc1)c1cc(Cl)cc(-c2nnn[nH]2)c1 is lower in melting point: 232 to 233 °C for the first, 177 to 180 °C for the second.

First: O=C(O)c1cnc(-c2nnn[nH]2)cc1-c1ccccc1
Second: CC(=O)c1cc2ccccc2cn1
The melting point of the first is higher: over 300 °C for the first, 84.4 to 86.8 °C for the second.

Compared with COC(=O)C(=CC(=CN(C)C)c1cc(OCc2ccccc2)ccc1[N+](=O)[O-])[N+](=O)[O-], CN(Cc1cc2c(=O)c(C(=O)NCc3ccc(Cl)cc3)cn(C)c2s1)C[C@@H](O)c1ccc([N+](=O)[O-])cc1 is higher in melting point: 158 to 165 °C for the first, 181 to 183 °C for the second.

Going from FC(F)(F)c1cc(-c2cccs2)[nH]n1 to N#Cc1ccc(CBr)c(C#N)c1, the melting point falls from 121 °C to 106 °C.

First: O=[N+]([O-])c1cc(CN(CCN=C=S)CCN=C=S)cc(CN(CCN=C=S)CCN=C=S)c1
Second: Nc1ccc(OCCCCCCCCCCOc2ccc(N)cc2)cc1
The melting point of the first is lower: 62 to 64 °C for the first, 70 to 71 °C for the second.

First: O=C(O)CCCCCCCCCCC(=O)CCC(=O)O
Second: COCCCCCCCCCCCC(=O)O
The melting point of the first is higher: 117 to 118 °C for the first, 45 to 47 °C for the second.

First: CC(C)C(NS(=O)(=O)c1ccc2c3c(oc2c1)CCCC3)C(=O)O (stereo unspecified)
Second: CC(=O)OCC1OC(n2c(Br)nc3cc(Cl)c(Cl)cc32)C(O)C1O (stereo unspecified)
The melting point of the first is higher: 167 to 169 °C for the first, 85 to 95 °C for the second.

CC(C)(C)OC(=O)NC1(C(=O)NCC(F)(F)F)CC1 showed a melting point of 166 to 167 °C.
